Test results as given in patent US8563714B2, “Bridged spiro [2.4] heptane derivatives as ALX receptor and/or FPRL2 agonists” (Actelion Pharmaceuticals Ltd., priority 2009, dated 2013).
pEC50: −log10 of the molar value.

Assays:
human FPRL2 = target: T1, human FPRL2 (Homo sapiens, UniProt P25089); assay: Intracellular calcium measurements (FLIPR), agonistic activity in HEK293-hFPRL2-Gα16 cells; assay type: cell-based; conditions: Fluo-4 calcium FLIPR, normalized to GLY14-Humanin 100 nM
T1 construct: expressed in transfected cells; host or cells: HEK293 (HEK293-hFPRL2-Gα16)
T1 sequence (P25089 1-353): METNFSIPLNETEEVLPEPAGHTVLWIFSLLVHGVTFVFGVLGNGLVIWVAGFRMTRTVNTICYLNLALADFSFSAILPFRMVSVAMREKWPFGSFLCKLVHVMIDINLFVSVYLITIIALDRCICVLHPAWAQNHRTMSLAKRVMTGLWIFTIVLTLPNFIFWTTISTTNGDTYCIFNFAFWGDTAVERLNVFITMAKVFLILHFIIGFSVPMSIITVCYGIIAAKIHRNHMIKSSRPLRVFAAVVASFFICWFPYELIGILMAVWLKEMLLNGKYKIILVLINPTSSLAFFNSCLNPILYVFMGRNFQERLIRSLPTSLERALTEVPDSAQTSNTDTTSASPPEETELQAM
Method in brief: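 Peak values after baseline subtraction are expressed relative to 100 nM Gly14-Humanin; compounds diluted in assay buffer from 10 mM DMSO stocks.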

human ALX receptor = target: T2, human ALX receptor (Homo sapiens, UniProt P25090); assay: Intracellular calcium measurements (FLIPR), agonistic activity in HEK293-hALXR-Gα16 cells; assay type: cell-based; conditions: Fluo-4 calcium FLIPR, normalized to WKYMVm 10 nM
T2 construct: expressed in transfected cells; host or cells: HEK293 (HEK293-hALXR-Gα16)
T2 sequence (P25090 1-351): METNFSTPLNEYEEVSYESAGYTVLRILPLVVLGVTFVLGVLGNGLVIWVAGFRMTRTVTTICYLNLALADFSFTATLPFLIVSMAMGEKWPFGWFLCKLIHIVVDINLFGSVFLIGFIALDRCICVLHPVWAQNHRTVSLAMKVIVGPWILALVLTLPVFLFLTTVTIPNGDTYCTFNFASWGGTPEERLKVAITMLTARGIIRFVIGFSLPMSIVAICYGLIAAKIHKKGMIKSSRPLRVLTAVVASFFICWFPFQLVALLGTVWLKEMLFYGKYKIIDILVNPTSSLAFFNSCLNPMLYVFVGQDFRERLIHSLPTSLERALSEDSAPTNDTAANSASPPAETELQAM
Method in brief: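 HEK293 cells expressing hALXR and Gα16 were loaded with 1 μM Fluo-4 AM and 20 mM HEPES for 60 min at 37°C, then exposed to serially diluted compound. FLIPR fluorescence was read at ex 488/em 540 nm. Baseline-subtracted peak responses were normalized to 10 nM WKYMVm.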

pEC50 (human FPRL2) | pEC50 (human ALX receptor) | Compound
5.46 | 6.92 | O=C(NCCCCN1CCCC1)[C@H]1[C@H](C(=O)Nc2ncc([N+](=O)[O-])s2)[C@@H]2C=C[C@H]1C21CC1 (racemic) [Example 128, (5R*)—N^5-(5-Nitro-thiazol-2-yl)-(6R*)—N^6-(4-pyrrolidin-1-yl-butyl)-(4S*,7R*)-[4,7-ethenylene-spiro[2.4]heptane]-5,6-dicarboxamide]
< 4.60 | 6.29 | COc1ccc(NC(=O)[C@H]2[C@H](C(=O)NCCC(=O)O)[C@H]3C=C[C@@H]2C32CC2)cc1 [Example 287, (5R)—N^5-(4-Methoxyphenyl)-(6R)—N^6-(3-hydroxyl-3-oxopropyl)-(4S,7R)-[4,7-ethenylene-spiro[2.4]heptane]-5,6-dicarboxamide]
6.49 | 5.64 | O=C(NCCCCN1CCCC1)[C@H]1[C@H](C(=O)Nc2nc3ccccc3s2)[C@@H]2C=C[C@H]1C21CC1 (racemic) [Example 144, (5R*)—N^5-(Benzothiazol-2-yl)-(6R*)—N^6-(4-pyrrolidin-1-yl-butyl)-(4S*,7R*)-[4,7-ethenylene-spiro[2.4]heptane]-5,6-dicarboxamide]
6.57 | < 4.60 | O=C(NCCCCN1CCCC1)[C@H]1[C@H](C(=O)NCc2c(F)ccc(F)c2Cl)[C@@H]2C=C[C@H]1C21CC1 (racemic) [Example 371, (5R*)—N^5-(2-Chloro-3,6-difluorophenyl-methyl)-(6R*)—N^6-(4-pyrrolidino-butyl)-(4S*,7R*)-[4,7-ethenylene-spiro[2.4]heptane]-5,6-dicarboxamide]
7.36 | 7.55 | O=C(NCCCCN1CCCC1)[C@H]1[C@H](C(=O)NCc2c(F)cc(Br)cc2F)[C@@H]2C=C[C@H]1C21CC1 [Example 317, (5R)—N^5-(4-Bromo-2,6-difluorophenyl-methyl)-(6R)—N^6-(4-pyrrolidin-1-yl-butyl)-(4S,7R)-[4,7-ethenylene-spiro[2.4]heptane]-5,6-dicarboxamide]
5.35 | 6.05 | CCOCCCNC(=O)[C@H]1[C@H](C(=O)NCc2ccc(Br)cc2)[C@@H]2C=C[C@H]1C21CC1 (racemic) [Example 263, (5R*)—N^5-(4-Bromophenyl-methyl)-(6R*)—N^6-(3-ethoxy-propyl)-(4S*,7R*)-[4,7-ethenylene-spiro[2.4]heptane]-5,6-dicarboxamide]
8.13 | 7.11 | Cc1nc(CCNC(=O)[C@H]2[C@H](C(=O)Nc3ccc(Br)cc3)[C@H]3C=C[C@@H]2C32CC2)[nH]c1C (relative stereo) [Example 199, (5R*)—N^5-(2-(4,5-Dimethyl-1H-imidazol-2-yl)-ethyl)-(6R*)—N^6-(4-bromophenyl)-(4S*,7R*)-[4,7-ethenylene-spiro[2.4]heptane]-5,6-dicarboxamide]
5.32 | 8.14 | NC(=O)CCCNC(=O)[C@H]1[C@H](C(=O)Nc2ccc(Br)cc2)[C@@H]2C=C[C@H]1C21CC1 (racemic) [Example 205, (5R*)—N^5-(4-Bromophenyl)-(6R*)—N^6-(4-amino-4-oxobutyl)-(4S*,7R*)-[4,7-ethenylene-spiro[2.4]heptane]-5,6-dicarboxamide]
5.79 | 7.92 | CC(C)(CN)CNC(=O)[C@H]1[C@H](C(=O)Nc2ncc(Br)s2)[C@@H]2C=C[C@H]1C21CC1 (racemic) [Example 304, (5R*)—N^5-(5-Bromo-thiazol-2-yl)-(6R*)—N^6-(2,2-dimethyl-3-amino-propyl)-(4S*,7R*)-[4,7-ethenylene-spiro[2.4]heptane]-5,6-dicarboxamide]
6.47 | 8.21 | O=C(NCCCC(=O)N1CCCC1)[C@H]1[C@H](C(=O)Nc2ccc(Br)cc2)[C@@H]2C=C[C@H]1C21CC1 [Example 214, (5R)—N^5-(4-Bromophenyl)-(6R)—N^6-(4-pyrrolidino-4-oxobutyl)-(4S,7R)-[4,7-ethenylene-spiro[2.4]heptane]-5,6-dicarboxamide]
5.39 | 8.43 | CCSCCNC(=O)[C@H]1[C@H](C(=O)Nc2ccc(Br)cc2)[C@@H]2C=C[C@H]1C21CC1 (racemic) [Example 24, (5R*)—N^5-(4-Bromophenyl)-(6R*)—N^6-(2-ethylsulfanyl-ethyl)-(4S*,7R*)-[4,7-ethenylene-spiro[2.4]heptane]-5,6-dicarboxamide]
6.15 | 6.47 | Cn1c(CCC(=O)NC[C@H]2[C@H](C(=O)Nc3ccc(Br)cc3)[C@@H]3C=C[C@H]2C32CC2)nc2ccccc21 (racemic) [Example 185, (5R*)—N^5-(4-Bromo-phenyl)-(6R*)-6-[(3-(1-methyl-1H-benzoimidazol-2-yl)-propionylamino)-methyl]-(4S*,7R*)-[4,7-ethenylene-spiro[2.4]heptane]-5-carboxamide]
< 4.60 | 6.59 | NC(=O)CCNC(=O)[C@H]1[C@H](C(=O)Nc2ccc(Br)cn2)[C@@H]2C=C[C@H]1C21CC1 [Example 280, (5R)—N^5-(5-Bromopyrid-2-yl)-(6R)—N^6-(3-amino-3-oxopropyl)-(4S,7R)-[4,7-ethenylene-spiro[2.4]heptane]-5,6-dicarboxamide]
5.99 | 8.05 | O=C(Nc1ncc(Br)s1)C1C(C(=O)NC2CCNC2)C2CCC1C21CC1 [Example 412, (5R)—N^5-(5-Bromothiazol-2-yl)-(6R)—N^6-(pyrrolidin-3-yl)-(4S,7R)-[4,7-ethylene-spiro[2.4]heptane]-5,6-dicarboxamide]
< 4.60 | 6.62 | NC(=O)CCNC(=O)[C@H]1[C@H](C(=O)NCc2ccc(Br)cc2)[C@@H]2C=C[C@H]1C21CC1 [Example 241, (5R)—N^5-(4-Bromo-phenyl-methyl)-(6R)—N^6-(3-amino-3-oxopropyl)-(4S,7R)-[4,7-ethenylene-spiro[2.4]heptane]-5,6-dicarboxamide]
5.09 | 6.43 | CNC(=O)C(NC(=O)C1C(C(=O)Nc2ccc(Br)cc2)C2C=CC1C21CC1)C(C)(C)C [Example 96, (5R*)—N^5-(4-Bromophenyl)-(6R*)—N^6—[(2S)-3,3-dimethyl-1-(methylamino)-1-oxobutan-2-yl]-(4S*,7R*)-[4,7-ethenylene-spiro[2.4]heptane]-5,6-dicarboxamide]
5.08 | 7.68 | CC(C)CC(CO)NC(=O)C1C(C(=O)Nc2ccc(Br)cc2)C2C=CC1C21CC1 (mixture of isomers) [Example 59, (5R*)—N^5-(4-Bromophenyl)-(6R*)—N^6-[(2S)-1-hydroxy-4-methyl-pent-2-yl]-(4S*,7R*)-[4,7-ethenylene-spiro[2.4]heptane]-5,6-dicarboxamide]
5.43 | 8.62 | O=C(NCCN1CCNC1=O)[C@H]1[C@H](C(=O)Nc2ccc(Br)cc2)[C@@H]2CC[C@H]1C21CC1 (racemic) [Example 105, (5R*)—N^5-(4-Bromophenyl)-(6R*)—N^6-[(2-imidazolidin-2-on-1-yl)-ethyl]-(4S*,7R*)-[4,7-ethylene-spiro[2.4]heptane]-5,6-dicarboxamide]
5.34 | 6.90 | CC(C)C(=O)NC[C@H]1[C@H](C(=O)Nc2ccc(Br)cc2)[C@@H]2C=C[C@H]1C21CC1 (racemic) [Example 172, (5R*)—N^5-(4-Bromo-phenyl)-(6R*)-6-[(isobutyrylamino)-methyl]-(4S*,7R*)-[4,7-ethenylene-spiro[2.4]heptane]-5-carboxamide]
6.58 | 8.68 | O=C(NCC1CCCCN1)[C@H]1[C@H](C(=O)Nc2ncc(Br)s2)[C@@H]2CC[C@H]1C21CC1 (stereo partly drawn) [Example 417, (5R)—N^5-(5-Bromothiazol-2-yl)-(6R)—N^6-[(piperidin-2-yl)-methyl]-(4S,7R)-[4,7-ethylene-spiro[2.4]heptane]-5,6-dicarboxamide]
6.40 | 7.27 | CCN(CC)CCCCNC(=O)[C@H]1[C@H](C(=O)Nc2ncc(Br)s2)[C@@H]2C=C[C@H]1C21CC1 (racemic) [Example 270, (5R*)—N^5-(5-Bromothiazol-2-yl)-(6R*)—N^6-(4-diethylamino-butyl)-(4S*,7R*)-[4,7-ethenylene-spiro[2.4]heptane]-5,6-dicarboxamide]

Compound | pEC50 (human FPRL2) | pEC50 (human ALX receptor)
CC(C)(C)OC(=O)N1CC(NC(=O)[C@H]2[C@H](C(=O)Nc3ccc(Br)cc3)[C@@H]3C=C[C@H]2C32CC2)C1 (racemic) [Example 98, (5R*)—N^5-(4-Bromophenyl)-(6R*)—N^6—(N-tert-butoxycarbonyl-azetidin-3-yl)-(4S*,7R*)-[4,7-ethenylene-spiro[2.4]heptane]-5,6-dicarboxamide] | 6.24 | 6.32
